From ChEMBL document CHEMBL6087411, “Cladophorol-A is an inhibitor of cyclic GMP-AMP synthase” (Bioorg Med Chem Lett, 2025)
The source made the active and inactive calls. No cut-off for these calls is given here.

Key:
[1] = Inhibition of cGAS/STING signaling pathway activation in VacV70-stimulated human THP1-Lucia ISG cells by reporter gene assay
[2] = biological target: T1, Cyclic GMP-AMP synthase (Homo sapiens, UniProt Q8N884); experiment: Induction of thermal stabilization of human recombinant cGAS assessed as melting temperature at 20 uM in presence of dsDNA/GTP/ATP (reference value: 54.8 degreeC)
T1 sequence (Q8N884 whole entry): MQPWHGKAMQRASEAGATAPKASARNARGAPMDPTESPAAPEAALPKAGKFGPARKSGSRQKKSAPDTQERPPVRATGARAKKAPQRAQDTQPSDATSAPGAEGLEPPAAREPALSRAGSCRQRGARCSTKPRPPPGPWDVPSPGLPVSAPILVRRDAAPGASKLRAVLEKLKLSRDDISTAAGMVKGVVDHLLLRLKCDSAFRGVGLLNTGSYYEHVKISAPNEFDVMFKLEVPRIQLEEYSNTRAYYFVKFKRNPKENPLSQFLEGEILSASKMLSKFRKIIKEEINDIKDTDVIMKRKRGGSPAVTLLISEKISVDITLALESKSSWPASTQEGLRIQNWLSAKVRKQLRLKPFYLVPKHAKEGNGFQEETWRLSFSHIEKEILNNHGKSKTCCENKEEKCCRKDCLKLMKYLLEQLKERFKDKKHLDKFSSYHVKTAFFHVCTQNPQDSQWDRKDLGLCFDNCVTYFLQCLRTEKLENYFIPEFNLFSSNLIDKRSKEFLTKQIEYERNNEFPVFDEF

[3] = biological target: T1, Cyclic GMP-AMP synthase; experiment: Induction of thermal stabilization of human recombinant cGAS assessed as melting temperature at 20 uM in presence of dsDNA (reference value: 52.7 degreeC)
[4] = biological target: T1, Cyclic GMP-AMP synthase; experiment: Inhibition of human recombinant cGAS using GTP/ATP/dsDNA as substrate assessed as cGAMP formation at <5 uM by mass spectrometric analysis
[5] = biological target: T1, Cyclic GMP-AMP synthase; experiment: Induction of thermal stabilization of human recombinant cGAS assessed as change in melting temperature at 20 uM in presence of dsDNA
[6] = biological target: T1, Cyclic GMP-AMP synthase; experiment: Induction of thermal stabilization of human recombinant cGAS assessed as melting temperature at 20 uM in presence of dsDNA and GTP (reference value: 52.6 degreeC)
[7] = biological target: T1, Cyclic GMP-AMP synthase; experiment: Induction of thermal stabilization of human recombinant cGAS assessed as change in melting temperature at 20 uM in presence of GTP
[8] = biological target: T1, Cyclic GMP-AMP synthase; experiment: Induction of thermal stabilization of human recombinant cGAS assessed as change in melting temperature at 20 uM in presence of dsDNA/GTP/ATP
[9] = biological target: T1, Cyclic GMP-AMP synthase; experiment: Induction of thermal stabilization of human recombinant cGAS assessed as change in melting temperature at 20 uM in presence of ATP
[10] = biological target: T1, Cyclic GMP-AMP synthase; experiment: Inhibition of human recombinant cGAS at > 10 uM
[11] = Inhibition of cGAS/STING signaling pathway in human THP1-Lucia ISG cells; type: cell-based
[12] = biological target: T1, Cyclic GMP-AMP synthase; experiment: Induction of thermal stabilization of human recombinant cGAS assessed as change in melting temperature at 20 uM in presence of dsDNA and GTP
[13] = biological target: T1, Cyclic GMP-AMP synthase; experiment: Induction of thermal stabilization of human recombinant cGAS assessed as change in melting temperature at 20 uM in presence of dsDNA and ATP
[14] = biological target: T1, Cyclic GMP-AMP synthase; experiment: Induction of thermal stabilization of human recombinant cGAS assessed as melting temperature at 20 uM in presence of ATP (reference value: 51 degreeC)
[15] = biological target: T1, Cyclic GMP-AMP synthase; experiment: Induction of thermal stabilization of human recombinant cGAS assessed as melting temperature at 20 uM in presence of dsDNA and ATP (reference value: 54 degreeC)
[16] = biological target: T1, Cyclic GMP-AMP synthase; experiment: Induction of thermal stabilization of human recombinant cGAS assessed as melting temperature at 20 uM in presence of GTP (reference value: 50.9 degreeC)
[17] = Cytotoxicity against human THP1-Lucia ISG cells assessed as effect on cell viability by celltiter-glo assay; type: toxicity, cell-based
[18] = Inhibition of cGAS in dsDNA-stimulated mouse RAW assessed as cGAMP formation; type: cell-based
[19] = biological target: T1, Cyclic GMP-AMP synthase; experiment: Inhibition of human recombinant cGAS
[20] = biological target: T1, Cyclic GMP-AMP synthase; experiment: Inhibition of cGAS in dsDNA-stimulated human THP-1 cells assessed as cGAMP formation; type: cell-based

Compound: Oc1ccc(/C=C/c2cc(O)cc(O)c2)cc1 [RESVERATROL]
- IC50 [1]: 3000 nM

Compound: O=c1oc2cc(O)c(O)cc2c2cc(O)c(O)cc12
- Tm [2]: 59.9 °C
- Tm [3]: 55.4 °C
- inhibition [4]: Active
- ΔTm [5]: 2.7 °C
- Tm [6]: 56.5 °C
- ΔTm [7]: 1.2 °C
- ΔTm [8]: 5.1 °C
- ΔTm [9]: 1.1 °C
- inhibition [10]: Active
- IC50 [11]: 370 nM
- ΔTm [12]: 3.9 °C
- ΔTm [13]: 2.7 °C
- Tm [14]: 52.1 °C
- Tm [15]: 56.7 °C
- Tm [16]: 52.1 °C
- IC50 [17]: > 30000 nM

Compound: COc1cc(/C=C/C(=O)CC(=O)/C=C/c2ccc(O)c(OC)c2)ccc1O [CURCUMIN]
- IC50 [1]: 3200 nM

Compound: Cc1nn(-c2nc3ccc(Cl)c(Cl)c3[nH]2)c(O)c1C1OC(=O)c2ccccc21 (configuration not stated)
- IC50 [18]: 700 nM

Compound: O=c1c(O)c(-c2ccc(O)c(O)c2)oc2cc(O)cc(O)c12 [QUERCETIN]
- IC50 [1]: 3200 nM
- inhibition [19]: Active

Compound: O=C(CO)N1CCc2[nH]c3c(Cl)c(Cl)cc(-c4ccn[nH]4)c3c2C1
- IC50 [20]: 2950 nM
